In brackets after ≈: the same amount, converted by molar mass.
Tested on: S. pneumoniae ATCC 49619
Assay: Minimal inhibitory concentration (MIC) by microdilution method (CLSI M7-A7)
Assay type: cell-based, Streptococcus pneumoniae
Conditions: Streptococcus pneumoniae, ATCC49619, cation-adjusted Mueller-Hinton Broth supplemented with 3% (v/v) lysed horse blood
Method in brief: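 For S. pneumoniae, cation-adjusted Mueller-Hinton broth carried 3% (v/v) lysed horse blood; MICs (mg/l) were read by CLSI M7-A7 microdilution.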

Compound | MIC [µg/mL]
CCNC(=O)Nc1cc2cccc(CNc3ccnn3C)c2cn1.Cl [Example 303, 1-ethyl-3-{8-[(2-methyl-2H-pyrazol-3-ylamino)-methyl]-isoquinolin-3-yl}-urea hydrochloride] | 4
CCNC(=O)Nc1cc2cccc(-c3ccc(C(=O)O)cc3)c2cn1 [Example 123, 4-[3-(3-ethyl-ureido)-isoquinolin-8-yl]-benzoic acid] | 4 (≈ 11.9 µM)
CCNC(=O)Nc1cc2c(F)c(NCc3ccccc3)cc(C)c2cn1 [Example 57, 1-(6-benzylamino-5-fluoro-8-methyl-isoquinolin-3-yl)-3-ethyl-urea] | 0.5 (≈ 1.42 µM)
CCNC(=O)Nc1cc2c(CN3CCOCC3)ccc(Nc3cccc(OC)n3)c2cn1 [Example 275, 1-ethyl-3-{8-[(6-methoxy-pyridin-2-yl)amino]-5-(morpholin-4-ylmethyl)-isoquinolin-3-yl}-urea] | 4 (≈ 9.16 µM)
CCNC(=O)Nc1cc2cc(-c3cccc4[nH]ccc34)cc(C)c2cn1 [Example 90, 1-ethyl-3-[6-(1H-indol-4-yl)-8-methyl-isoquinolin-3-yl]-urea] | 2 (≈ 5.81 µM)
CCNC(=O)Nc1cc2c(-c3ccnc(C)c3)ccc(Nc3cccnc3)c2cn1 [Example 229, 1-ethyl-3-[5-(2-methyl-pyridin-4-yl)-8-(pyridin-3-ylamino)-isoquinolin-3-yl]-urea] | 0.25 (≈ 0.627 µM)
CCNC(=O)Nc1cc2cc(-c3ccccc3NC(C)=O)cc(C)c2cn1 [Example 86, N-{2-[3-(3-ethyl-ureido)-8-methyl-isoquinolin-6-yl]-phenyl}-acetamide] | 16 (≈ 44.1 µM)
CCNC(=O)Nc1cc2cc(-c3cccc(C(=O)OCC)c3)cc(C)c2cn1 [Example 84, 3-[3-(3-ethyl-ureido)-8-methyl-isoquinolin-6-yl]-benzoic acid ethyl ester] | 0.5 (≈ 1.32 µM)
CCNC(=O)Nc1cc2cccc(Nc3ccc(C)cn3)c2cn1.Cl [Example 163, 1-ethyl-3-[8-(5-methyl-pyridin-2-ylamino)-isoquinolin-3-yl]-urea hydrochloride] | 2
CCNC(=O)Nc1cc2c(CNC)ccc(C)c2cn1 [Example 269, 1-ethyl-3-(8-methyl-5-methylaminomethyl-isoquinolin-3-yl)-urea] | 8 (≈ 29.4 µM)
CCNC(=O)Nc1cc2c(F)c(NCc3ccccc3)cc(-c3cnc(OC)nc3)c2cn1 [Example 110, 1-[6-benzylamino-5-fluoro-8-(2-methoxy-pyrimidin-5-yl)-isoquinolin-3-yl]-3-ethyl-urea] | 1 (≈ 2.24 µM)
CCNC(=O)Nc1cc2cc(-c3cncnc3C(C)C)cc(C)c2cn1 [Example 95, 1-ethyl-3-[6-(4-isopropyl-pyrimidin-5-yl)-8-methyl-isoquinolin-3-yl]-urea] | 16 (≈ 45.8 µM)
CCNC(=O)Nc1cc2c(-c3ccnc(C)c3)ccc(Nc3cccc(C(=O)NC)c3)c2cn1 [Example 247, 3-[3-(3-ethyl-ureido)-5-(2-methyl-pyridin-4-yl)-isoquinolin-8-ylamino]-N-methyl-benzamide] | 0.25 (≈ 0.55 µM)
CCNC(=O)Nc1cc2cc(NCc3ccccc3)cc(Nc3cccnc3)c2cn1 [Example 239, 1-[6-benzylamino-8-(pyridin-3-ylamino)-isoquinolin-3-yl]-3-ethyl-urea] | 0.5 (≈ 1.21 µM)
CCNC(=O)Nc1cc2c(-c3cccc4cnccc34)ccc(C)c2cn1 [Example 67, 1-ethyl-3-(8-methyl-[5,5′]biisoquinolinyl-3-yl)-urea] | 16 (≈ 44.9 µM)
CCNC(=O)Nc1cc2cccc(Cn3cc(CO)cn3)c2cn1 [Example 292, 1-ethyl-3-[8-(4-hydroxymethyl-pyrazol-1-ylmethyl)-isoquinolin-3-yl]-urea] | 8 (≈ 24.6 µM)
CCNC(=O)Nc1cc2cc(NCc3ccc(-n4cnc(C)n4)cc3)cc(C)c2cn1.Cl [Example 131, 1-ethyl-3-{8-methyl-6-[4-(3-methyl-[1,2,4]triazol-1-yl)-benzylamino]-isoquinolin-3-yl}-urea hydrochloride] | 4
CCNC(=O)Nc1cc2c(-c3ccncc3)ccc(Nc3cccc(OC)n3)c2cn1 [Example 217, 1-ethyl-3-[8-(6-methoxy-pyridin-2-ylamino)-5-pyridin-4-yl-isoquinolin-3-yl]-urea] | 0.5 (≈ 1.21 µM)
CCNC(=O)Nc1cc2c(F)c(-c3cccc(NC(C)=O)c3)cc(-c3cnc(OC)nc3)c2cn1 [Example 114, N-{3-[3-(3-ethyl-ureido)-5-fluoro-8-(2-methoxy-pyrimidin-5-yl)-isoquinolin-6-yl]-phenyl}-acetamide] | 0.5 (≈ 1.05 µM)
CCNC(=O)Nc1cc2c(-c3cccc(CO)c3)ccc(C)c2cn1 [Example 12, 1-ethyl-3-[5-(3-hydroxymethyl-phenyl)-8-methyl-isoquinolin-3-yl]-urea] | 8 (≈ 23.9 µM)
CCNC(=O)Nc1cc2cc(-c3cccc(CO)c3)cc(C)c2cn1 [Example 19, 1-ethyl-3-[6-(3-hydroxymethyl-phenyl)-8-methyl-isoquinolin-3-yl]-urea] | 1 (≈ 2.98 µM)

Compound | MIC [µg/mL]
CCNC(=O)Nc1cc2cc(-c3ccc(S(N)(=O)=O)cc3)cc(C)c2cn1 [Example 38, 4-[3-(3-ethyl-ureido)-8-methyl-isoquinolin-6-yl]-benzenesulfonamide] | 1 (≈ 2.6 µM)
CCNC(=O)Nc1cc2c(-c3ccnnc3)ccc(C)c2cn1 [Example 279, 1-ethyl-3-(8-methyl-5-pyridazin-4-yl-isoquinolin-3-yl)-urea] | 1 (≈ 3.25 µM)
CCNC(=O)Nc1cc2cccc(Nc3ccc(C(N)=O)cn3)c2cn1.Cl [Example 156, 6-[3-(3-ethyl-ureido)-isoquinolin-8-ylamino]-nicotinamide hydrochloride] | 2
CCNC(=O)Nc1cc2cc(-c3ccc(C(C)=O)cc3)cc(C)c2cn1 [Example 108, 1-[6-(4-acetyl-phenyl)-8-methyl-isoquinolin-3-yl]-3-ethyl-urea] | 0.5 (≈ 1.44 µM)
CCNC(=O)Nc1cc2c(-c3ccc4nccn4c3)ccc(C)c2cn1 [Example 7, 1-ethyl-3-(5-imidazo[1,2-a]pyridin-6-yl-8-methyl-isoquinolin-3-yl)-urea] | 4 (≈ 11.6 µM)
CCNC(=O)Nc1cc2cccc(Nc3ccccn3)c2cn1 [Example 146, 1-ethyl-3-[8-(pyridin-2-ylamino)-isoquinolin-3-yl]-urea] | 4 (≈ 13 µM)
CCNC(=O)Nc1cc2cccc(COc3cccnc3C)c2cn1.Cl [Example 259, 1-ethyl-3-[8-(2-methyl-pyridin-3-yloxymethyl)-isoquinolin-3-yl]-urea hydrochloride] | 4
CCNC(=O)Nc1cc2c(F)c(-c3cccc(NC(C)=O)c3)cc(-c3cccnc3)c2cn1 [Example 113, N-{3-[3-(3-ethyl-ureido)-5-fluoro-8-pyridin-3-yl-isoquinolin-6-yl]-phenyl}-acetamide] | 1 (≈ 2.25 µM)
CCNC(=O)Nc1cc2c(-c3ccnc(C)c3)ccc(C)c2cn1 [Example 40, 1-ethyl-3-[8-methyl-5-(2-methyl-pyridin-4-yl)-isoquinolin-3-yl]-urea] | 2 (≈ 6.24 µM)
CCNC(=O)Nc1cc2c(CNC)ccc(Nc3cccc(C(=O)O)c3)c2cn1 [Example 272, 3-{[3-(3-ethyl-ureido)-5-[(methylamino)methyl]-isoquinolin-8-yl]amino}-benzoic acid] | 8 (≈ 20.3 µM)
CCNC(=O)Nc1cc2cccc(Nc3ccc(C(=O)OC)cc3)c2cn1 [Example 179, 4-[3-(3-ethyl-ureido)-isoquinolin-8-ylamino]-benzoic acid methyl ester] | 4 (≈ 11 µM)
CCNC(=O)Nc1cc2c(F)ccc(Cc3ccccc3)c2cn1 [Example 46, 1-(8-benzyl-5-fluoro-isoquinolin-3-yl)-3-ethyl-urea] | 1 (≈ 3.09 µM)
CCNC(=O)Nc1cc2cccc(Nc3ccc(CC(=O)NCc4ccccc4)cc3)c2cn1.Cl [Example 208, N-benzyl-2-{4-[3-(3-ethyl-ureido)-isoquinolin-8-ylamino]-phenyl}-acetamide hydrochloride] | 8
CCNC(=O)Nc1cc2cc(-c3cccc(S(N)(=O)=O)c3)cc(C)c2cn1 [Example 22, 3-[3-(3-ethyl-ureido)-8-methyl-isoquinolin-6-yl]-benzenesulfonamide] | 0.5 (≈ 1.3 µM)
CCNC(=O)Nc1cc2cc(-c3ccc4nccn4c3)cc(C)c2cn1 [Example 25, 1-ethyl-3-(6-imidazo[1,2-a]pyridin-6-yl-8-methyl-isoquinolin-3-yl)-urea] | 0.5 (≈ 1.45 µM)
CCNC(=O)Nc1cc2cccc(Cn3cccn3)c2cn1 [Example 295, 1-ethyl-3-(8-pyrazol-1-ylmethyl-isoquinolin-3-yl)-urea] | 8 (≈ 27.1 µM)
CCNC(=O)Nc1cc2c(N3CCN(C)CC3)ccc(Nc3cccnc3)c2cn1 [Example 277, 1-ethyl-3-[5-(4-methyl-piperazin-1-yl)-8-(pyridin-3-ylamino)-isoquinolin-3-yl]-urea] | 2 (≈ 4.93 µM)
CCNC(=O)Nc1cc2c(F)ccc(C)c2cn1 [Example 60, 1-ethyl-3-(5-fluoro-8-methyl-isoquinolin-3-yl)-urea] | 4 (≈ 16.2 µM)
CCNC(=O)Nc1cc2c(F)ccc(-c3ccc(C(=O)O)cc3)c2cn1 [Example 74, 4-[3-(3-ethyl-ureido)-5-fluoro-isoquinolin-8-yl]-benzoic acid] | 2 (≈ 5.66 µM)
CCNC(=O)Nc1cc2cc(-c3cccc(NC(C)=O)c3)cc(Nc3cccnc3)c2cn1 [Example 236, N-{3-[3-(3-ethyl-ureido)-8-(pyridin-3-ylamino)-isoquinolin-6-yl]-phenyl}-acetamide] | 0.5 (≈ 1.14 µM)
CCNC(=O)Nc1cc2c(-c3ccncc3)ccc(Nc3cccc(C(=O)OC)c3)c2cn1 [Example 220, 3-[3-(3-ethyl-ureido)-5-pyridin-4-yl-isoquinolin-8-ylamino]-benzoic acid methyl ester] | 16 (≈ 36.2 µM)

Same assay, conditions: cation-adjusted Mueller-Hinton Broth supplemented with 3% (v/v) lysed horse blood

Compound | MIC for S. pneumoniae ATCC 49619 [µg/mL]
CCNC(=O)Nc1cc2cc(C(NC(C)=O)c3ccccc3)cc(C)c2cn1 (centres unmarked) [Example 17, N-{1-[3-(3-ethyl-ureido)-8-methyl-isoquinolin-6-yl]-benzyl}-acetamide] | 1
1-ethyl-3-[8-(5-hydroxymethyl-imidazol-1-ylmethyl)-isoquinolin-3-yl]-urea and 1-ethyl-3-[8-(4-hydroxymethyl-imidazol-1-ylmethyl)-isoquinolin-3-yl]-urea [Example 293] | 4

Reference: patent US20130096119A1, “Isoquinolin-3-Ylurea Derivatives” (priority 2010, published 2013)
